Here are results for three compounds from publication PMC6192554, “In vitro toxicity and efficacy of verdinexor, an exportin 1 inhibitor, on opportunistic viruses affecting immunocompromised individuals” (PLoS ONE, 2018).

In test [1] the test system is Epstein-Barr virus (EBV) Akata strain. Put plainly: EBV primary assay, DNA hybridization in induced Akata cells. The class given is cell-based. The protocol:
(§1) EBV Akata strain was assayed in Akata cells (John Sixbey, LSU) latently infected with EBV (and therefore oncogenic). Cells were maintained in RPMI 1640, (Mediatech) with 10% FBS (Hyclone), L-glutamine, penicillin and gentamicin.
For Primary assay, Akata cells latently infected with EBV were induced to undergo lytic infection by addition of 50μg/ml of a goat anti-human IgG [16] and a dose-range of verdinexor (0.032 to 100 μM) was added for 72hr. Denaturation buffer was added and an aliquot aspirated through an Immobilon nylon membrane (Millipore, Bedford, MA). Dried membranes were equilibrated in DIG Easy Hyb solution (Roche Diagnostics, Indianapolis, IN) at 56°C. Specific DIG-labeled probes for EBV (S1 Table). (Roche Diagnostics). Membranes with EBV DNA were hybridized overnight followed by washes in 0.2× SSC and 0.1× SSC both with 0.1% SDS. Detection of specifically bound DIG probe was performed with anti-DIG antibody (Roche Diagnostics). An image of the photographic film was captured and quantified with QuantityOne software (Bio-Rad), and the EC50 were interpolated.

For test [2] the test system is unchanged. Put plainly: EBV secondary assay, qPCR of viral DNA in induced Akata cells. The class given is cell-based. The protocol: as §1
Secondary assay for EBV were performed in Akata cells that were induced to undergo a lytic infection with 50μg/ml of a goat anti-human IgG antibody by methods we reported previously. Experimental compounds were diluted in round bottom 96-well plates to yield concentrations ranging from 0.0032–100μM. Akata cells were added to the plates at a concentration of 4×10^4 cells per well and […]. Assay plates were incubated for seven days at 37°C. For all assays, the replication of the virus was assessed by the quantification of viral DNA. For primer sequences, please see S1 Table. EBV DNA was purified according to manufacturer’s instructions (Wizard SV 96 Genomic DNA Purification System). The purified DNA was then subjected to qPCR that amplified a fragment corresponding to nucleotides 96802–97234 in the EBV genome (AJ507799). Plasmid pMP218 containing a DNA sequences corresponding to nucleotides 14120–14182 (AF148805.2) was used to provide absolute quantification of viral DNA. Compound concentrations sufficient to reduce genome copy number by 50% were calculated from experimental data.
On the technique in general: In qPCR the cycle at which signal appears reflects the starting amount.

A further test relates to KSHV strain BCBL-1. Put plainly: KSHV qPCR of viral DNA in PMA-induced BCBL-1 cells. The test is classed as cell-based, Kaposi's sarcoma-associated herpesvirus. To be noted: Human gammaherpesvirus 8, BCBL1, KSHV. The protocol:
KSHV strain BCBL-1 was obtained as latently infected BCBL-1 cells through the NIH AIDS Research and Reference Reagent Program. BCBL-1 cells were maintained in growth medium consisting of RPMI 1640 supplemented with 10% FBS, penicillin, gentamicin, and l-glutamine.
To quantify virus, compound was diluted from 0.008–100μM and added to BCBL-1 cells induced to undergo a lytic infection by the addition of 100ng/ml phorbol 12-myristate 13-acetate (PMA) (Promega). After 7d, total DNA was prepared, and viral DNA was quantified by qPCR (see S1 Table for primer/probe sequences). Plasmid pMP218 containing a DNA sequence corresponding to nucleotides 14120–14182 (AF148805.2) was used to provide absolute quantification of viral DNA and EC50 [11].

A further test deals with HPV-11. In words: HPV-11 transient origin-plasmid replication assay in HEK293 cells (qPCR). The test is classed as cell-based, human papillomavirus. The protocol:
HPV-11 and -18 were tested in HEK293 cells and primary human keratinocytes (PHK), respectively. PHKs were isolated from neonatal foreskins following circumcision according to IRB-approved protocols at UAB. They were grown in keratinocyte serum-free medium (Life Technologies) with mitomycin C-treated J2 feeder cells (Swiss 3T3 J2 fibroblasts; Elaine Fuchs, Rockefeller University). HEK 293 cells were maintained under standard conditions.
Quantification of virus was determined via transient replication of an HPV-11 replication origin-containing plasmid in HEK293 cells co-transfected with an HPV-11 replicative DNA helicase E1 and origin binding E2 protein [20]. 293 cells were cultured with test compounds added 4hr post-transfection for 2 days. Low molecular weight DNA was isolated, digested with Dpn1 and exonuclease III to eliminate unreplicated DNA. The Dpn1-resistant DNA was then subjected to qPCR analyses amplifying a small portion of the replication origin [20]. In a negative control, the E1 expression vector was omitted or cultures were treated with the inhibitor cidofovir.

Test [3] concerns BK polyomavirus (BKPyV) Gardner strain. Put plainly: BKPyV qPCR genome copy assay in HFF cells. The test is classed as cell-based. To be noted: Betapolyomavirus hominis. The protocol: (§2) John Cunningham polyomavirus (JCPyV) strains MAD-1 and MAD-4 and BK polyomavirus (BKPyV) Gardner strain were obtained from ATCC. COS-7 cells were obtained from ATCC and maintained according to ATCC-supplied protocols.
Primary assays for BKPyV were performed in 384-well plates containing monolayers of HFF cells. Compound dilutions ranging from 0.0032–100μM were prepared in plates containing cells which were subsequently infected at an MOI of 0.001. After a 7d incubation, total DNA was prepared using Extracta and genome copy number was quantified by qPCR using the primers and probe listed in S1 Table [18]. Plasmid pMP526 served as the DNA standard for quantification purposes. Compounds were confirmed in a similar assay in 96-well plates according to established laboratory protocols with the compounds added 1h […] to identify compounds that inhibit early stages of replication including adsorption and entry. Genome copy number was determined by methods described above.

The subject of test [4] is JC polyoma virus MAD-4 strain. In words: microbe, parasite or virus in culture. The class given is cell-based. The following applies: Polyomavirus sp., COS-7, JCPyV, primary screen, COS-7 cells. The protocol:
as §2
Cytotoxicity assay was performed in a manner analogous to KSHV above. Evaluation of compounds against JCPyV virus was done in COS7 cells with the plasmid pMP508 to provide a standard curve for quantification.
Viral DNA was quantified (S1 Table) together with the plasmid pMP508 to provide a standard curve for absolute quantification. Secondary assays against JCV were also performed in COS7 cells by methods similar to those for BK virus to identify if verdinexor inhibited adsorption or entry of the virus.

A further test concerns Human CMV strain AD169. Put plainly: HCMV yield reduction assay in HFF cells. The following applies: Human betaherpesvirus 5, AD169, HFF. The test is classed as cell-based, human cytomegalovirus. The protocol: Human CMV strain AD169 was obtained from ATCC and assayed in human foreskin fibroblast cells (HFF). HFF cells were prepared at the University of Alabama at Birmingham (UAB) tissue procurement facility with IRB approval as previously described. Yield reduction assays for HCMV were performed on monolayers of HFF cells prepared in 96-well plates and incubated at 37°C for 1d to allow the cells to reach confluency. Media was then aspirated from the wells were infected at a high multiplicity of infection (MOI). At 1h following infection, the inocula were removed and the monolayers rinsed with fresh media. Compounds were then diluted in assay media consisting of MEM with Earl’s salts supplemented with 2% FBS, L-glutamine, penicillin, and gentamycin. Solutions ranging from 0.0032–10μM in primary assay and 0.032–100μM in secondary assay were added to the wells and the plates were incubated for various times, depending on the virus used and represents the length of a single replication cycle for the virus. A duplicate set of dilutions were also performed but remained uninfected to serve as a cytotoxicity control and received equal compound exposure. Supernatants from each of the infected wells were subsequently titered in a TCID50 assay to quantify the progeny virus.

Setting [5] is: human gammaherpesvirus 4, Akata.

Usually EC50 stands for the concentration giving half of the maximal effect. A higher EC50 goes with a less potent agent. In the case of `Nc1nc2c(ncn2COCCO)c(=O)[nH]1` [acyclovir, reference compound], the “SI (Selectivity Index, CC50/EC50)” value in test [1] (EBV, primary screen, DNA hybridization) is reported as over 7; in test [2] (EBV, secondary screen, qPCR), over 13. Also, the 50% effective concentration (EC50) is 15 µM in test [1] (setting [5]) and 7.9 µM in test [2] (setting [5]).

`Nc1ccn(C[C@@H](CO)OCP(=O)(O)O)c(=O)n1` [cidofovir, reference compound]: the EC50 in the test on KSHV strain BCBL-1 (primary screen) is under 0.48 µM; in the test on KSHV strain BCBL-1 (secondary screen), 1.68 µM; in the test on HPV-11 (Human papillomavirus, HPV-11, primary screen), 148 µM; in test [3] (primary screen), 4.48 µM; in test [3] (secondary screen, compound added 1h post-infection), 2.06 µM; in test [4] it was 3.86 µM. Further, in the test on HPV-11 (primary screen, qPCR), the “efficacy against HPV-11” value was “did not show efficacy”.

Regarding `Nc1nc(O)c2ncn(COC(CO)CO)c2n1` [ganciclovir, reference compound], the concentration giving a half-maximal response (EC50) in the test on Human CMV strain AD169 (primary screen) is 0.51 µM; in the test with Human CMV strain AD169 (secondary screen), 4 µM.
